The values that follow come from US10550400B2, “Methods to monitor post-translational gene silencing activity in plant tissues/cell types relevant for pathogen entry, propagation or replication” (Paris Sciences et Lettres—Quartier Latin, priority 2014, dated 2020).

Common to all, as to format: in vivo, Arabidopsis thaliana
In assay [1] the test system is phloem-specific IR-PTGS sensor. The experiment in a line: Visual chlorotic phenotype of sprayed phloem-specific IR-PTGS sensor (SUC-SUL plants). To be noted: for vein-centered chlorotic phenotype (IR-PTGS activity): sprayed on phloem-specific IR-PTGS sensor; for chlorotic phenotype / PTGS activity, phloem-specific reporter: 2 mM SA with 0.02% Silwet L-77, 5 days, SUC-SUL. An excerpt: A. […]
In step (b), said molecule, microorganism or extract can be applied either at seedling stage or at later developmental stages such as at rosette stage. This molecule, microorganism or extract is applied either in liquid medium in (micro) well-plates, by infiltration using a needle-less syringe or vacuum, or by spray using a concentration of surfactant that is known from people skilled in the art.
Visual observation of step (c) can be made several days, preferably 4 to 5 days, after step (b) The term “silencing” means down-regulating or antagonizing, at least partly, a targeted gene transcript.
For this purpose, they have sprayed a previously characterized phloem-specific IR-PTGS sensor (Dunoyer et al., 2005) with either (1) Salicylic acid (SA), a well-characterized phytohormone that plays a critical role in resistance against biotrophic pathogens, (2) 2,6-dichloroisonicotonic acid and benzo-(1,2,3)-thiadiazole-7-carbothioic acid S-methyl ester (BTH), a functional analog of SA that is regularly used by farmers to enhance disease resistance in crops, (3) Aliette, formulated fosetyl-Aluminium that can stimulate plant antimicrobial defense in cultivated plants but also protect them from fungal and oomycete infections through a potent and systemic fungicide activity, (4) Serenade, which is composed of formulated Bacillus subtilis (5) formulated Laminarine, a beta 1-3 glucan that mimics fungal cell wall and therefore promote natural antifungal defense responses in some cultivated plants; and have further monitored the effects of such treatments on the vein-centered chlorotic phenotype of this IR-PTGS reporter system. […] It is noteworthy that the presented molecular analyses allow us (i) to detect at which steps of the PTGS a given molecule is acting (small RNA biogenesis and/or RISC activity) (ii) to quantify the strength by which the candidate molecules is modulating RNA silencing in a given tissue that is relevant for disease management. […]

For a further assay, the system named is SUL protein. The assay can be described thus: Western blot of SUL protein levels in SA-treated SUC-SUL leaves. Conditions: 2 mM SA + 0.01% Silwet L-77, 3 days, vs Mock. As for the experimental part: C. Western blot analyses showing SUL and CIP4 protein levels in SUC-SUL leaves treated with either Mock (0.01% Silwet L-77 only) or with 2 mM of SA (+0.01% Silwet L-77) for 3 days.
(§1) For this purpose, they have sprayed a previously characterized phloem-specific IR-PTGS sensor (Dunoyer et al., 2005) with either (1) Salicylic acid (SA), a well-characterized phytohormone that plays a critical role in resistance against biotrophic pathogens, (2) 2,6-dichloroisonicotonic acid and benzo-(1,2,3)-thiadiazole-7-carbothioic acid S-methyl ester (BTH), a functional analog of SA that is regularly used by farmers to enhance disease resistance in crops, (3) Aliette, formulated fosetyl-Aluminium that can stimulate plant antimicrobial defense in cultivated plants but also protect them from fungal and oomycete infections through a potent and systemic fungicide activity, (4) Serenade, which is composed of formulated Bacillus subtilis (5) formulated Laminarine, a beta 1-3 glucan that mimics fungal cell wall and therefore promote natural antifungal defense responses in some cultivated plants; and have further monitored the effects of such treatments on the vein-centered chlorotic phenotype of this IR-PTGS reporter system. […]

The test system of the next assay is SUL transcript. The assay can be described thus: RT-qPCR of SUL transcript levels in SA-treated SUC-SUL leaves. To be noted: 2 mM SA + 0.01% Silwet L-77, 3 days, vs Mock. As for the experimental part:
B. RT-qPCR analysis depicting SUL and CIP4 transcript levels in SUC-SUL leaves treated with either Mock (0.01% Silwet L-77 only) or with 2 mM of SA (+0.01% Silwet L-77) for 3 days.
as §1

In a further assay the test system is artificial siRNAs. The source says: These level analyses will determine (i) at which steps of the RNA silencing pathway a given molecule, microorganism or extract is acting (small RNA biogenesis, accumulation and/or activity) (ii) the intensity by which a given molecule, microorganism or extract is modulating RNA silencing. Regarding the quantification of artificial or endogenous small RNA accumulation, Low Molecular Weight (LMW) Northern blot analyses or Real Time quantitative PCR (RT-qPCR) analyses can be used. Concerning the quantification of artificial or endogenous small RNA targets, High Molecular Weight (HMW) Northern analyses or RT-PCR analyses can be used. […]

Assay [2] concerns biosensor specific to xylem parenchyma cells. The assay can be described thus: Visual chlorosis of sprayed xylem-specific biosensors (AAP6-p::SUL-LUS, IRX3-p::SUL-LUS). To be noted: 2 mM SA with 0.02% Silwet L-77, 5 days, AAP6-p::SUL-LUS and IRX3-p::SUL-LUS; listed as SA. As for the experimental part: Picture of 5-week-old SUC-SUL, HYD-p::SUL-LUS, AAP6-p::SUL-LUS, IRX3-p::SUL-LUS or GC1-p::SUL-LUS plants treated either Mock (0.02% Silwet L-77 only) or 2 mM of SA (with 0.02% Silwet L-77) for 5 days.
To test whether the increase level of PTGS detected in SA-treated phloem-specific IR-PTGS sensor is detectable to other tissues, the inventors have sprayed different tissue-specific biosensors with the same concentration of SA. The biosensors specific to hydathodes, xylem parenchyma cells, guard cells and companion cells of phloem were sprayed with SA and the level of chlorosis was assessed 5 day later (FIG. 6). […] These observations therefore highlight the importance of using different tissue-specific biosensors to screen natural or synthetic compounds, microorganisms, macro- or micro-organism extracts that can have a PTGS inducer activity specifically in a given tissue that is relevant to manage a specific disease. On the contrary, we are anticipating that the whole series of reporters will be also exploited to identify molecules, microorganisms or extracts that can induce PTGS/immune responses in all the above tissues. Such compounds, microorganisms or extracts will have the potential to confer broad-spectrum disease resistance and to restrict growth of pathogens with different modes of entry, propagation and replication. […]

With `O=C(O)c1cc(Cl)nc(Cl)c1` [2,6-dichloroisonicotonic acid], the “vein-centered chlorotic phenotype (IR-PTGS activity)” value (“vein-centered chlorotic phenotype” below) in assay [1] is listed as “significant enhanced chlorotic phenotypes”.

Turning to `CSC(=O)c1cccc2nnsc12` [BTH, benzo-(1,2,3)-thiadiazole-7-carbothioic acid S-methyl ester], the “vein-centered chlorotic phenotype” value in assay [1] is “significant enhanced chlorotic phenotypes”.

Consider `O=C(O)c1ccccc1O` [Salicylic acid], for which the “chlorotic phenotype / PTGS activity, phloem-specific reporter” value in assay [1] is recorded as “promotes PTGS activity”; in assay [1] (listed as SA), “significant enhanced chlorotic phenotype”. Also, in assay [1], the “vein-centered chlorotic phenotype” value is listed as “significant enhanced chlorotic phenotypes”. Besides, the SUL protein levels result in the assay with SUL protein is on record as “significant decrease”. In addition, the SUL transcript accumulation entry in the assay with SUL transcript is on record as “mild reduction”. Further, the “accumulation of artificial siRNAs” value with artificial siRNAs was “no significant effect”. Besides, in assay [2], the “chlorotic phenotype / PTGS activity, xylem parenchyma reporters” value is “not in other silencing reporter tested”.
